Patent US12655175B2, “C17, C20, and C21 substituted neuroactive steroids and their methods of use” (Sage Therapeutics, LLC, priority 2016, dated 2026)

Biological target: GABAA receptor
Assay: Steroid inhibition of [35S]-TBPS binding
Conditions: rat brain cortical membranes, 3 nM [35S]-TBPS, in the presence of 5 mM GABA
Procedure: Steroid Inhibition of TBPS Binding
Briefly, cortices are rapidly removed following decapitation of carbon dioxide-anesthetized Sprague-Dawley rats ([…]). The cortices are homogenized in 10 volumes of ice-cold 0.32 M sucrose using a glass/teflon homogenizer and centrifuged at 1500×g for 10 min at 4° C. The resultant supernatants are centrifuged at 10,000×g for 20 min at 4° C. to obtain the P2 pellets. The P2 pellets are resuspended in 200 mM NaCl/50 mM Na—K phosphate pH 7.4 buffer and centrifuged at 10,000×g for 10 min at 4° C. This washing procedure is repeated twice and the pellets are resuspended in 10 volumes of buffer. Aliquots ([…]) of the membrane suspensions are incubated with 3 nM [^35S]-TBPS and […] aliquots of test drug dissolved in dimethyl sulfoxide (DMSO) (final 0.5%) in the presence of 5 mM GABA. The incubation is brought to a final volume of 1.0 mL with buffer. […] Following a 90 min incubation at room temp, the assays are terminated by filtration through glass fiber filters (Schleicher and Schuell No. 32) using a cell harvester (Brandel) and rinsed three times with ice-cold buffer. Filter bound radioactivity is measured by liquid scintillation spectrometry. Non-linear curve fitting of the overall data for each drug averaged for each concentration is done using Prism (GraphPad).
Various compounds are or can be screened to determine their potential as modulators of [^35S]-TBPS binding in vitro. These assays are or can be performed in accordance with the above discussed procedures.

Row | SMILES | IC50 [µM]
1 | COC[C@]12CC[C@@](C)(O)C[C@H]1CC[C@H]1[C@@H]3CC[C@H](C(=O)CN(C)c4ccccc4)[C@@]3(C)CC[C@@H]12 [Compound 75] | 0.01 to 0.05
2 | C[C@@]1(O)CC[C@H]2[C@H](CC[C@@H]3[C@@H]2CC[C@]2(C)[C@@H](C4CCOCC4)CC[C@@H]32)C1 [Compound 107] | > 0.5
3 | CCO[C@H]1C[C@@]2(C)[C@@H](CC[C@H]3[C@@H]4CC[C@H]([N+](=O)[O-])[C@@]4(C)CC(=O)[C@@H]32)C[C@@H]1O [Compound 123] | 0.05 to 0.1
4 | C[C@@]1(O)CC[C@H]2[C@H](CC[C@@H]3[C@@H]2CC[C@]2(C)[C@@H](c4ccccc4)CC[C@@H]32)C1 [Compound 101] | 0.1 to 0.5
5 | CCOC[C@]12CC[C@@](C)(O)C[C@@H]1CC[C@H]1[C@@H]3CC[C@H](C(=O)CNc4ccccc4)[C@@]3(C)CC[C@@H]12 [Compound 66] | 0.05 to 0.1
6 | CN(Cc1ccccc1)C(=O)[C@H]1CC[C@H]2[C@@H]3CC[C@@H]4C[C@](C)(O)CC[C@@H]4[C@H]3CC[C@]12C [Compound 4] | 0.01 to 0.05
7 | CCOC[C@@]1(O)CC[C@H]2[C@H](CC[C@@H]3[C@@H]2CC[C@]2(C)[C@@H](C(=O)N(C)[C@@H](CC)c4ccc(F)cc4)CC[C@@H]32)C1 [Compound 57] | 0.1 to 0.5
8 | C[C@@]1(O)CC[C@H]2[C@H](CC[C@@H]3[C@@H]2CC[C@]2(C)[C@@H](c4ccncc4)CC[C@@H]32)C1 [Compound 103] | 0.01 to 0.05
9 | CCOC[C@@]1(O)CC[C@H]2[C@H](CC[C@@H]3[C@@H]2CC[C@]2(C)[C@@H](C(=O)CNc4ccccc4)CC[C@@H]32)C1 [Compound 84] | 0.01 to 0.05
10 | CCOC[C@@]1(O)CC[C@H]2[C@H](CC[C@@H]3[C@@H]2CC[C@]2(C)[C@@H](C(=O)CN(C)c4ccccc4)CC[C@@H]32)C1 [Compound 83] | 0.1 to 0.5
11 | CCOC[C@@]1(O)CC[C@H]2[C@H](CC[C@@H]3[C@@H]2CC[C@]2(C)[C@@H](C(=O)N4CCCCC4)CC[C@@H]32)C1 [Compound 50] | 0.1 to 0.5
12 | C[C@@]1(O)CC[C@H]2[C@H](CC[C@@H]3[C@@H]2CC[C@]2(C)[C@@H](c4ccccn4)CC[C@@H]32)C1 [Compound 108] | 0.1 to 0.5
13 | C[C@@]1(O)CC[C@H]2[C@H](CC[C@@H]3[C@@H]2CC[C@]2(C)[C@@H](C(=O)NCC4CCOCC4)CC[C@@H]32)C1 [Compound 24] | > 0.5
14 | CC[C@H](NC(=O)[C@H]1CC[C@H]2[C@@H]3CC[C@@H]4C[C@](C)(O)CC[C@@H]4[C@H]3CC[C@]12C)c1ccc(F)cc1 (single isomer, unassigned) [Compound 33] | 0.1 to 0.5
15 | CCOC[C@@]1(O)CC[C@H]2[C@H](CC[C@@H]3[C@@H]2CC[C@]2(C)[C@@H](C(=O)N4CCC[C@@H]4c4ncco4)CC[C@@H]32)C1 [Compound 60] | > 0.5
16 | CN(C(=O)[C@H]1CC[C@H]2[C@@H]3CC[C@@H]4C[C@](C)(O)CC[C@@H]4[C@H]3CC[C@]12C)C1CCCCC1 [Compound 9] | 0.1 to 0.5
17 | CN(CC1CCOCC1)C(=O)[C@H]1CC[C@H]2[C@@H]3CC[C@@H]4C[C@](C)(O)CC[C@@H]4[C@H]3CC[C@]12C [Compound 14] | > 0.5
18 | CO[C@H]1C[C@]2(C)[C@@H]([N+](=O)[O-])CC[C@H]2[C@@H]2CC[C@H]3C[C@H](O)[C@@H](OC)C[C@]3(C)[C@H]21 [Compound 119] | 0.01 to 0.05

Row | SMILES | IC50 [µM]
19 | Cn1cc([C@H]2CC[C@H]3[C@@H]4CC[C@@H]5C[C@](C)(O)CC[C@@H]5[C@H]4CC[C@]23C)cn1 [Compound 111] | 0.05 to 0.1
20 | CCOC[C@@]1(O)CC[C@H]2[C@H](CC[C@@H]3[C@@H]2CC[C@]2(C)[C@@H](C(=O)N[C@H](C)c4ccc(C#N)cc4)CC[C@@H]32)C1 [Compound 48] | 0.1 to 0.5
21 | CN(Cc1ccccn1)C(=O)[C@H]1CC[C@H]2[C@@H]3CC[C@@H]4C[C@](C)(O)CC[C@@H]4[C@H]3CC[C@]12C [Compound 22] | > 0.5
22 | C[C@@]1(O)CC[C@@]2(C)[C@@H](CC[C@@H]3[C@@H]2CC[C@]2(C)[C@@H](N)CC[C@@H]32)C1 [Compound 93] | > 0.5
23 | CCOC[C@@]1(O)CC[C@H]2[C@H](CC[C@@H]3[C@@H]2CC[C@]2(C)[C@@H](C(=O)N(C)[C@H](C)c4ccc(C#N)cc4)CC[C@@H]32)C1 [Compound 49] | 0.05 to 0.1
24 | C[C@@]1(O)CC[C@H]2[C@H](CC[C@@H]3[C@@H]2CC[C@]2(C)[C@@H](C(=O)N4CCCCC4)CC[C@@H]32)C1 [Compound 5] | 0.05 to 0.1
25 | C[C@@]1(O)CC[C@H]2[C@H](CC[C@@H]3[C@@H]2CC[C@]2(C)[C@@H](C(=O)NCc4ccccn4)CC[C@@H]32)C1 [Compound 15] | 0.1 to 0.5
26 | C[C@]12CC[C@](O)(C(F)(F)F)C[C@@H]1CC[C@@H]1[C@@H]2CC[C@]2(C)[C@@H](C(=O)CNc3ccccc3)CC[C@@H]12 [Compound 73] | 0.05 to 0.1
27 | CN(CC(=O)[C@H]1CC[C@H]2[C@@H]3CC[C@H]4C[C@@](O)(C(F)(F)F)CC[C@]4(C)[C@H]3CC[C@]12C)c1ccccc1 [Compound 74] | > 0.5
28 | CN(CC(=O)[C@H]1CC[C@H]2[C@@H]3CC[C@@H]4C[C@](C)(O)CC[C@@H]4[C@H]3CC[C@]12C)c1ccccc1 [Compound 39] | 0.05 to 0.1
29 | C[C@@H](c1ccc(C#N)cc1)N(C)C(=O)[C@H]1CC[C@H]2[C@@H]3CC[C@@H]4C[C@@](O)(C(F)(F)F)CC[C@@H]4[C@H]3CC[C@]12C [Compound 70] | 0.1 to 0.5
30 | C[C@@H]1CCCCN1C(=O)[C@H]1CC[C@H]2[C@@H]3CC[C@@H]4C[C@](C)(O)CC[C@@H]4[C@H]3CC[C@]12C [Compound 25] | 0.1 to 0.5
31 | CCOC[C@@]1(O)CC[C@H]2[C@H](CC[C@@H]3[C@@H]2CC[C@]2(C)[C@@H](C(=O)N(C)[C@H](C)c4ccc(F)cc4)CC[C@@H]32)C1 [Compound 61] | 0.1 to 0.5
32 | CN(C(=O)[C@H]1CC[C@H]2[C@@H]3CC[C@@H]4C[C@](C)(O)CC[C@@H]4[C@H]3CC[C@]12C)c1ccccc1 [Compound 7] | > 0.5
33 | CO[C@H]1C[C@@]2(C)[C@@H](CC[C@@H]3[C@@H]2[C@@H](O)C[C@]2(C)[C@@H]([N+](=O)[O-])CC[C@@H]32)C[C@@H]1O [Compound 120] | 0.1 to 0.5
34 | C[C@@]1(O)CC[C@@]2(C)[C@@H](CC[C@@H]3[C@@H]2CC[C@]2(C)[C@@H](OCc4ccccc4)CC[C@@H]32)C1 [Compound 112] | > 0.5
35 | C[C@@]1(O)CC[C@H]2[C@H](CC[C@@H]3[C@@H]2CC[C@]2(C)[C@@H](C(=O)N4CC[C@H](c5ccccc5)C4)CC[C@@H]32)C1 [Compound 31] | 0.05 to 0.1
